Assay: pH of solute solutions of equivalent molarity
Format: physicochemical
Details: solution in 1:1 volumetric ratio acetonitrile to de-ionized water; 1.32 × 10^−6 mol, concentration as in Table 3

pH | SMILES
4.5 | Oc1ccccc1O [Catechol]
7.6 | OCCCCCCCCCCO [Decanediol, 1,10-Decanediol]
2.8 | O=C(O)c1ccccc1O [Salicylic acid]

SMILES | pH
O=C(O)c1ccccc1 [Benzoic acid] | 3.6
N#CC(=Cc1ccc(O)cc1)C(=O)O [αCHCA, α-cyano-4-hydroxycinnamic acid] | 2.75

Assay: Solubility of matrix in acetonitrile/de-ionized water matrix solvent
Format: physicochemical
Details: acetonitrile/de-ionized water 1:1 (v/v), aqueous with cosolvent or surfactant or cyclodextrin, thermodynamic from solid; 1:1 volumetric ratio acetonitrile to de-ionized water; read-out: Matrix concentration that displayed insolubility
Experimental: To further investigate the sample concentrating properties of CNT anchor spots, experiments were conducted using varying concentration of sample. Solutions were prepared. A solution of 1:1 volumetric ratio of acetonitrile to de-ionized water was prepared as a matrix solvent. Dry crystalline matrix αCHCA was weighed out with a Sartorius Research (Goettingen, Germany) model R200D digital precision balance and combined in a 1.5 mL Eppendorf® Safe-Lock Microcentrifuge tube (Westbury, N.Y.) with sufficient quantity of solution to achieve a matrix concentration varied over three orders of magnitude from 0.006 mg/mL to 6 mg/mL. […] All matrix solutions were prepared freshly and independently of each other in order to reduce possibility of concentration error. The samples were prepared by manually depositing 0.2 μL of solution from pipette to new carbon nanotube enhanced substrates (same parameters as previous experiment). The droplets were allowed to dry in ambient conditions (room temperature 23° C.), and time-lapse images were captured using the optical microscope described previously.

SMILES | solubility
N#CC(=Cc1ccc(O)cc1)C(=O)O [αCHCA, α-cyano-4-hydroxycinnamic acid] | > 6000 µg/mL
